Values quoted from earlier work, collected in patent EP0426167A2, “Antitumor substance, process for preparing the same, and pharmaceutical composition containing the same” (MEIJI SEIKA KAISHA LTD., priority 1989, dated 1991).

How the values were obtained:
P388 tumor cells [1] = details: result in words; cited from earlier work
P388 tumor cells [2] = details: result in words; cited from earlier work; remark: listed apart in the source
[3] = mouse, i.p.; cited from earlier work

In the case of Cc1cc2c(c3oc(C4(C)OC4C4OC4C)cc(=O)c13)C(=O)c1c(ccc(C3CC(C)(N(C)C)C(O)C(C)O3)c1O)C2=O (stereo not drawn) [SF2587 substance], the “inhibitory activity on P388 tumor cells” value (P388 tumor cells [1]) is given as “considerable inhibitory activity”, the “therapeutic effects in mice transplanted with P388 tumor cells” value (P388 tumor cells [2]) is given as “excellent therapeutic, effects” and the LD₅₀ [3] is given as 0.5 to 1 mg/kg.
